Data: US12661355B2, “Compounds and methods for inducing UCP1 expression” (The Regents of the University of California, priority 2020, dated 2026)

How the values were obtained:
[1] = target: T1, PKA subunits (C-α and RII-β) (Mus musculus, UniProt P05132+P31324); experiment: CETSA in brown adipocytes, PKA subunits; assay type: binding; details: 10 μM for 8 h
T1 construct: endogenous in cells; host or cells: immortalized mouse brown adipocytes
Procedure: (§1) CETSA assays were performed according to known methods. Briefly, differentiated brown adipocytes (one 10 cm dish per treatment) were treated with vehicle or compounds, trypsinized, counted, and re-suspended in approximately 450 μl PBS containing protease inhibitors (volumes were adjusted to have the same number of cells in each treatment). For each sample, 18 μl was distributed into each of 7 PCR tubes. Samples were heated using a thermocycler with a temperature gradient (iCycler, Biorad) for 3 min, followed by 3 min at room temperature, and then snap-frozen in liquid N2. After two freeze-thaw cycles, samples were centrifuged at 20,000 g for 15 min at 4° C., and the supernatants were transferred to another set of tubes. Proteins were analyzed by immunoblotting.
The PKA tetramer consists of two catalytic and two regulatory subunits. In the mouse, these are catalytic subunits C-α and C-β, and regulatory subunits RI and RII, each with α and β isoforms (RI-α, RI-β, RII-α, RII-β). […]
(§2) The potential interaction of Z160 with PKA subunits and AKAPs was assessed first by identifying which PKA subunits and AKAP isoforms are normally present in BAT. […] To perform the CETSA assays, cultured brown adipocytes were incubated with 10 μM Z160 for 8 h, after which the thermal shift was analyzed by Western blot.

[2] = target: T2, cGMP-dependent kinase 1 (PKG-1) (Mus musculus, UniProt P0C605); experiment: CETSA in brown adipocytes, PKG-1; assay type: binding; details: 10 μM for 8 h
T2 construct: endogenous in cells; host or cells: immortalized mouse brown adipocytes
Procedure: as §1, §2

NRVM = experiment: Respirometry (reserve capacity) in neonatal rat ventricular myocytes; assay type: cell-based; details: 10 μM Z160 for 24 h following 48 h 100 μM isoproterenol
Procedure: Rat H9c2 cells were grown in DMEM supplemented with 10% FBS, 25 mM glucose, 1 mM pyruvate, and 2 mM glutamine Neonatal rat ventricular myocytes (NRVM) were isolated and cultured as previously described. Briefly, 2-4 day old rats were sacrificed and myocytes and fibroblasts were isolated and separated using a Percoll density gradient. Following isolation, NRVMs were plated on gelatin-coated plates in DMEM containing 10% FBS, 25 mM glucose, 1 mM pyruvate, and 2 mM glutamine The next day, FBS was replaced by 1× insulin-transferrin-selenium supplement and the cells were treated with vehicle or 10 μM Z160 for 2 days, with or without 60 μM isoproterenol or 50 μM phenylephrine.
NRVM were seeded in a Seahorse Bioscience XF96 plate and cultured for 48 h in 10% FBS. Next, cells were treated with 100 μM ISO for 48 h, followed by 24 h of 10 μM Z160. Oxygen consumption rate (OCR) was recorded in a Seahorse Bioscience XF96 analyzer before and after the sequential injection of 0.75 μM oligomycin, 0.75 μm FCCP and 0.75 μM rotenone/myxothiazol. Reserve capacity was calculated as the difference between basal respiration and FCCP response.

[3] = tested on: electron transport chain protein complexes; experiment: Western blot of electron transport chain protein complexes in isolated mitochondria; assay type: cell-based, mouse; details: overnight 10 μM
Procedure: Cells and tissues were lysed in 10 mM Tris pH 7.5, 10 mM NaCl, 1 mM EDTA and 0.5% Triton X-100, supplemented with complete mini EDTA-free protease (Roche Diagnostics) and phosphatase (Cocktail 2 and 3, Sigma) inhibitors, followed by 10 second sonication. For analysis of mitochondrial proteins, mitochondria were isolated from cells by dual centrifugation, as described. Protein lysates were separated by SDS-PAGE and transferred to a nitrocellulose membrane. Transfer was confirmed by Ponceau staining (P7170, Sigma). After blocking in 5% milk, 0.1% Tween-20 in Tris-buffered saline (TBS), primary antibody was incubated overnight at 4° C. in 5% bovine serum albumin and 0.1% Tween-20 in TBS. Primary antibodies against ACTB (GTX109639, GeneTex), AKAP1 (5203, Cell Signaling), AKAP6 (07-087, Millipore), Cytochrome c (136F3, Cell Signaling), electron transport chain protein complexes (Total OXPHOS rodent WB antibody cocktail ab110413, Abcam), GAPDH (GTX100118, Genetex), active p38 MAPK (V1211, Promega), total p38 MAPK (8690, Cell Signaling), PGC1α (AB3242, Millipore), phospho-(Ser/Thr) PKA substrate (9621, Cell Signaling), PKA C-α (4782, Cell Signaling), PKA RII-β (ab75993, Abcam), and UCP1 (662045, Calbiochem) were used at 1:2000. […] Quantification using representative bands from the Ponceau staining was performed with ImageJ.

T2 sequence (P0C605 whole entry): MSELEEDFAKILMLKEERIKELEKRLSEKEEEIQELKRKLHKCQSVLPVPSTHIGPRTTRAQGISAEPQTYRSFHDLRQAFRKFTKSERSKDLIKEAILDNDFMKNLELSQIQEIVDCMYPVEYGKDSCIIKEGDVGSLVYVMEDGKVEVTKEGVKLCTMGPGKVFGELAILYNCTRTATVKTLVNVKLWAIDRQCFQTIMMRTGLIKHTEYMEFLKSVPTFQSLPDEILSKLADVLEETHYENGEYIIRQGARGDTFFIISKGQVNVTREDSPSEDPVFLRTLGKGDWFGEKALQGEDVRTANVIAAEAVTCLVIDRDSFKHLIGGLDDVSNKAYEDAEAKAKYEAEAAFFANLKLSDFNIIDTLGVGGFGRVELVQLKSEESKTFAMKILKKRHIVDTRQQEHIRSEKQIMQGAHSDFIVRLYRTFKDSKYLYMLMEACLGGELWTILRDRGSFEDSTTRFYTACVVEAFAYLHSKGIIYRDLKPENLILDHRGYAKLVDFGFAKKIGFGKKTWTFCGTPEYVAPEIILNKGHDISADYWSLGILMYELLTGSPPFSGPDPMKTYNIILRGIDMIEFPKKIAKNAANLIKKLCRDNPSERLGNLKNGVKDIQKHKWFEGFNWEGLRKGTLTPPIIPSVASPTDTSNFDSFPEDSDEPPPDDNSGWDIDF

COc1ccc(NC(=O)CSc2nc3ccccc3c(=O)[nH]2)c(OC)c1 [Z160]
denaturation (thermal shift) of PKA subunits C-α and RII-β [1]: did not show differences in denaturation | heat stability of PKG-1 [2]: did not influence the heat stability | effect on isoproterenol-induced reduction in reserve capacity (NRVM): prevented the ISO-induced reduction in reserve capacity | mitochondrial complex protein abundance [3]: slight enhancement
